Test results reported in patent USRE47689E1, “Compounds for treating spinal muscular atrophy” (PTC Therapeutics, Inc., priority 2011, dated 2019).
Counter-ions that a name gives are not always drawn. Like-named read-outs stand apart in the source and are kept apart here.

Tests used:
Smn protein = Smn protein assay in cultured cells (SMN HTRF); type: cell-based, human; conditions: for EC1.5x (concentration giving 1.5-fold Smn protein increase): read-out: EC1.5x for Smn protein expression
Experimental: The SMN HTRF (homogeneous time resolved fluorescence) assay is used to quantify the level of Smn protein in SMA patient fibroblast cells treated with test compounds.
Protocol. Cells are thawed and cultured in DMEM-10% FBS for 72 hours. Cells are trypsinized, counted and resuspended to a concentration of 25,000 cells/mL in DMEM-10% FBS. […] 1 μL of test compound solution is transferred to cell-containing wells and cells are incubated for 48 hours in a cell culture incubator (37° C., 5% CO2, 100% relative humidity). Triplicate samples are set up for each test compound concentration. After 48 hours, the supernatant is removed from the wells and 25 μL of the RIPA lysis buffer, containing protease inhibitors, is added to the wells and incubated with shaking at room temperature for 1 hour. 25 μL of the diluent is added and then 35 μL of the resulting lysate is transferred to a 384-well plate, where each well contains 5 μL of the antibody solution (1:100 dilution of anti-SMN d2 and anti-SMN kryptate in SMN reconstitution buffer). The plate is centrifuged for 1 minute to bring the solution to the bottom of the wells, then incubated overnight at room temperature. Fluorescence for each well of the plate at 665 nm and 620 nm is measured on an EnVision multilabel plate reader (Perkin-Elmer).
The normalized fluorescence signal is calculated for each sample, Blank and vehicle control well by dividing the signal at 665 nm by the signal at 620 nm. Normalizing the signal accounts for possible fluorescence quenching due to the matrix effect of the lysate. The ΔF value (a measurement of Smn protein abundance) for each sample well is calculated by subtracting the normalized average fluorescence for the Blank control wells from the normalized fluorescence for each sample well and then dividing this difference by the normalized average fluorescence for the Blank control wells. The resulting ΔF value for each sample well represents the Smn protein abundance from test compound-treated samples. The ΔF value for each sample well is divided by the ΔF value for the vehicle control wells to calculate the fold increase in Smn protein abundance relative to the vehicle control.
An EC1.5x for Smn protein expression between >3 μM and ≤10 μM is indicated by one star (*), an EC1.5x between >1 and ≤3 μM is indicated by two stars (**), an EC1.5x between >0.3 μM and ≤1 μM is indicated by three stars (***) and an EC1.5x≤0.3 μM is indicated by four stars (****).

[1] = test system: SMN2 minigene (full length SMN2 minigene mRNA containing SMN2 exon 7); assay: SMN2 minigene mRNA splicing RT-qPCR assay in cultured cells; type: cell-based, human; conditions: for EC (1.5-fold): Homo sapiens, HEK293-H, read-out: EC1.5x for production of full length SMN2 mRNA
Experimental: The reverse transcription-quantitative PCR-based (RT-qPCR) assay is used to quantify the level of the full length SMN2 minigene mRNA containing SMN2 exon 7 in a HEK293H cell line stably transfected with said minigene and treated with a test compound.
Protocol. HEK293H cells stably transfected with the SMN2-A minigene construct described above (10,000 cells/well) are seeded in 200 μL of cell culture medium (DMEM plus 10% FBS, with 200 μg/mL hygromycin) in 96-well flat-bottom plates and the plate is immediately swirled to ensure proper dispersal of cells, forming an even monolayer of cells. Cells are allowed to attach for at least 4-6 hours. […] A solution of test compound (1 μL, 200× in DMSO) is added to each cell-containing well and the plate is incubated for 24 hours in a cell culture incubator (37° C., 5% CO2, 100% relative humidity). 2 replicates are prepared for each test compound concentration. The cells are then lysed in Cells-To-Ct lysis buffer and the lysate is stored at −80° C.
The combination of these three oligonucleotides detects only SMN1 or SMN2 minigenes (RT-qPCR) and will not detect endogenous SMN1 or SMN2 genes.
The SMN forward and reverse primers are used at final concentrations of 0.4 μM.
The SMN2-minigene GAPDH mix (15 μL total volume) is prepared by combining 7.5 μL of 2×RT-PCR buffer, 0.4 μL of 25×RT-PCR enzyme mix, 0.75 μL of 20×GAPDH primer-probe mix, 4.0075 μL of water, 2 μL of 10-fold diluted cell lysate, 0.06 μL of 100 μM SMN forward primer, 0.06 μL of 100 μM SMN reverse primer, and 0.225 μL of 100 μM SMN probe.
PCR is carried out at the following temperatures for the indicated time: Step 1: 48° C. (15 min); Step 2: 95° C. (10 min); Step 3: 95° C. (15 sec); Step 4: 60° C. (1 min); then repeat Steps 3 and 4 for a total of 40 cycles.
Each reaction mixture contains both SMN2-A minigene and GAPDH primers/probe sets (multiplex design), allowing simultaneous measurement of the levels of two transcripts.
Two SMN spliced products are generated from the SMN2 minigene. The first spliced product containing exon 7, corresponding to full length SMN2 mRNA, is called SMN2mini FL. The second one lacking exon 7 is called SMN2mini Δ7.
The amplification efficiency E is calculated from the slope of the amplification curve for SMN2mini FL and GAPDH individually. The abundances of SMN2mini FL and GAPDH are then calculated as […], where Ct is the threshold value for each amplicon. The abundance of SMN2mini FL is normalized to GAPDH abundance. The normalized SMN2mini FL abundance from test compound-treated samples is then divided by normalized SMN2mini FL abundance from vehicle-treated cells to determine the level of SMN2 FL mRNA relative to vehicle control.
An EC1.5x for production of full length SMN2 mRNA between >3 μM and ≤30 μM is indicated by one star (*), an EC1.5x between >1 μM and ≤3 μM is indicated by two stars (**), an EC1.5x between >0.3 μM and ≤1 μM is indicated by three stars (***), an EC1.5x between >0.1 μM and ≤0.3 μM is indicated by four stars (****) and an EC1.5x≤0.1 μM is indicated by five stars (*****).

[2] = SMA Type 1 patient fibroblast cells (GM03813), 48 hours, 7-point concentration curve, SMN HTRF, concentration producing 1.5 times Smn protein vs DMSO vehicle control
[3] = SMA patient fibroblast cells, 48 hours, 7-point concentration data, fold increase relative to vehicle control (SMN HTRF)
[4] = HEK293H cells stably transfected with SMN2-A minigene, 24 hours, 7-point concentration curve, 1.5-fold relative to vehicle-treated cells

For Cc1cn2cc(-c3cc4ccc(N5CCN6CCC[C@H]6C5)cc4oc3=O)nc2cn1 [Compound 609, 7-[(8aS)-hexahydropyrrolo[1,2-a]pyrazin-2(1H)-yl]-3-(6-methylimidazo[1,2-a]pyrazin-2-yl)-2H-chromen-2-one], the EC1.5x (concentration giving 1.5-fold Smn protein increase) (Smn protein; [2]) was under 300 nM, the “maximum fold (Fold) increase of Smn protein” value (“maximum fold (Fold) increase” for short) (Smn protein; [3]) was “***** (fold increase >1.65)” and the EC (1.5-fold) [1, 4] was under 0.1 µM.
In the case of Cl.O=c1oc2cc(N3CCNCC3)ccc2cc1-c1ccnc(C2CC2)n1 [Compound 278, 3-(2-cyclopropylpyrimidin-4-yl)-7-(piperazin-1-yl)-2H-chromen-2-one hydrochloride], the “maximum fold (Fold) increase” value (Smn protein; [3]) is reported as “* (maximum fold increase of ≤1.2)” and the EC (1.5-fold) [1, 4] is reported as 0.3 to 1 µM.
CSc1nccn2cc(-c3cc4ccc(N5CCNCC5)cc4oc3=O)nc12 [Cpd 398, 3-[8-(methylsulfanyl)imidazo[1,2-a]pyrazin-2-yl]-7-(piperazin-1-yl)-2H-chromen-2-one] was tested, and the “maximum fold (Fold) increase” value (Smn protein; [3]) was “* (maximum fold increase of ≤1.2)” and the EC (1.5-fold) [1, 4] was 1 to 3 µM.
Cc1cn2cc(-c3cc4ccc(N5CCNC(C)(C)C5)cc4oc3=O)nc2c(C)n1 [Compound 736, 3-(6,8-dimethylimidazo[1,2-a]pyrazin-2-yl)-7-(3,3-dimethylpiperazin-1-yl)-2H-chromen-2-one] was tested, and the EC1.5x (concentration giving 1.5-fold Smn protein increase) (Smn protein; [2]) was under 300 nM, the “maximum fold (Fold) increase” value (Smn protein; [3]) was “***** (fold increase >1.65)” and the EC (1.5-fold) [1, 4] was under 0.1 µM.
In the case of Cc1cn2cc(-c3cc4ccc(C5CCNCC5)cc4oc3=O)ccc2n1 [Cpd 825, 3-(2-methylimidazo[1,2-a]pyridin-6-yl)-7-(piperidin-4-yl)-2H-chromen-2-one], the EC1.5x (concentration giving 1.5-fold Smn protein increase) (Smn protein; [2]) is reported as under 300 nM, the “maximum fold (Fold) increase” value (Smn protein; [3]) is reported as “***** (fold increase >1.65)” and the EC (1.5-fold) [1, 4] is reported as under 0.1 µM.
With O=c1oc2cc(N3CC4CC3CN4)ccc2cc1-c1nc2ccccc2o1 (stereo not drawn) [Compound 85, 3-(1,3-benzoxazol-2-yl)-7-(2,5-diazabicyclo[2.2.1]hept-2-yl)-2H-chromen-2-one] the “maximum fold (Fold) increase” value (Smn protein; [3]) was “* (maximum fold increase of ≤1.2)” and the EC (1.5-fold) [1, 4] was 3 to 30 µM.
Cc1cc2sc(-c3cc4ccc(N5CCN(C)CC5)cc4oc3=O)cc2c(C)n1 [Compound 819, 3-(4,6-dimethylthieno[3,2-c]pyridin-2-yl)-7-(4-methylpiperazin-1-yl)-2H-chromen-2-one] was tested, and the “maximum fold (Fold) increase” value (Smn protein; [3]) was “*** (fold increase between >1.35 and ≤1.5)” and the EC (1.5-fold) [1, 4] was under 0.1 µM.
For Cc1cn2cc(-c3cc4ccc(C5=CCN(C)CC5)cc4oc3=O)nc2c(C)n1 [Compound 800, 3-(6,8-dimethylimidazo[1,2-a]pyrazin-2-yl)-7-(1-methyl-1,2,3,6-tetrahydropyridin-4-yl)-2H-chromen-2-one], the “maximum fold (Fold) increase” value (Smn protein) was “***** (key: *: maximum fold increase of ≤1.2; **: fold increase between >1.2 and ≤1.35; ***: fold increase between >1.35 and ≤1.5; ****: fold increase between >1.5 and ≤1.65; *****: fold increase >1.65)”, the EC1.5x (concentration giving 1.5-fold Smn protein increase) (Smn protein) was under 300 nM and the EC (1.5-fold) ([1]; 24 h) was under 0.1 µM.
With CCc1nc(C)cn2cc(-c3cc4ccc(N5CCNCC5)cc4oc3=O)nc12 [Compound 824, 3-(8-ethyl-6-methylimidazo[1,2-a]pyrazin-2-yl)-7-(piperazin-1-yl)-2H-chromen-2-one] the EC1.5x (concentration giving 1.5-fold Smn protein increase) (Smn protein; [2]) was under 300 nM, the “maximum fold (Fold) increase” value (Smn protein; [3]) was “**** (fold increase between >1.5 and ≤1.65)” and the EC (1.5-fold) [1, 4] was under 0.1 µM.
CSc1nccn2cc(-c3cc4ccc(N5CCN(C)CC5)cc4oc3=O)nc12 [Compound 399, 7-(4-methylpiperazin-1-yl)-3-[8-(methylsulfanyl)imidazo[1,2-a]pyrazin-2-yl]-2H-chromen-2-one] was tested, and the “maximum fold (Fold) increase” value (Smn protein; [3]) was “* (maximum fold increase of ≤1.2)” and the EC (1.5-fold) [1, 4] was 3 to 30 µM.
With “7-(2,5-diazabicyclo[2.2.2]oct-2-yl)-3-(pyrazolo[1,5-a]pyridin-2-yl)-2H-chromen-2-one [Compound 191]” the “maximum fold (Fold) increase” value (Smn protein; [3]) was “** (fold increase between >1.2 and ≤1.35)” and the “EC1.5x for production of full length SMN2 mRNA” value [1, 4] was “*** (between >0.3 μM and ≤1 μM)”.
In the case of Cc1ccn2cc(-c3cc4ccc(O[C@@H]5CCNC5)cc4oc3=O)nc2c1 [Compound 323, 3-(7-methylimidazo[1,2-a]pyridin-2-yl)-7-[(3R)-pyirolidin-3-yloxy]-2H-chromen-2-one hydrochloride (1:2)], the “maximum fold (Fold) increase” value (Smn protein; [3]) is reported as “** (fold increase between >1.2 and ≤1.35)” and the EC (1.5-fold) [1, 4] is reported as 0.3 to 1 µM.
In the case of Cc1cn2cc(-c3cc4ccc(N5CC6CC5CN6)cc4oc3=O)cc2cn1 (stereo not drawn) [Compound 744, 7-(2,5-diazabicyclo[2.2.1]hept-2-yl)-3-(3-methylpyrrolo[1,2-a]pyrazin-7-yl)-2H-chromen-2-one], the “maximum fold (Fold) increase” value (Smn protein; [3]) is reported as “** (fold increase between >1.2 and ≤1.35)” and the EC (1.5-fold) [1, 4] is reported as under 0.1 µM.
With Cc1cn2cc(-c3cc4ccc(N5CCCN(C)CC5)cc4oc3=O)cc2c(C)n1 [Compound 681, 3-(1,3-dimethylpyrrolo[1,2-a]pyrazin-7-yl)-7-(4-methyl-1,4-diazepan-1-yl)-2H-chromen-2-one] the EC1.5x (concentration giving 1.5-fold Smn protein increase) (Smn protein; [2]) was under 300 nM, the “maximum fold (Fold) increase” value (Smn protein; [3]) was “**** (fold increase between >1.5 and ≤1.65)” and the EC (1.5-fold) [1, 4] was under 0.1 µM.
For Cc1cn2cc(-c3cc4ccc(CCNCCO)cc4oc3=O)nc2c(C)n1 [Compound 870, 3-(6,8-dimethylimidazo[1,2-a]pyrazin-2-yl)-7-{2-[(2-hydroxyethyl)amino]ethyl}-2H-chromen-2-one], the EC1.5x (concentration giving 1.5-fold Smn protein increase) (Smn protein; [2]) was under 300 nM, the “maximum fold (Fold) increase” value (Smn protein; [3]) was “**** (fold increase between >1.5 and ≤1.65)” and the EC (1.5-fold) [1, 4] was under 0.1 µM.
O=c1oc2cc(N3CCNCC3)ccc2cc1-c1nc2ncccc2o1 [Compound 110, 3-([1,3]oxazolo[4,5-b]pyridin-2-yl)-7-(piperazin-1-yl)-2H-chromen-2-one hydrochloride] was tested, and the “maximum fold (Fold) increase” value (Smn protein; [3]) was “** (fold increase between >1.2 and ≤1.35)” and the EC (1.5-fold) [1, 4] was 3 to 30 µM.
